Columns and labels:
[1] = test system: KB nasopharyngeal carcinoma cell line; assay: In vitro cytotoxicity, methylene blue assay / cell count: KB; type: cell-based; details: three generations, mean ± standard deviation of five experiments, read-out: ID50 (the source's name)
[2] = test system: DU-145 prostate carcinoma line; assay: In vitro cytotoxicity, methylene blue assay / cell count: DU-145; type: cell-based; details: Homo sapiens, read-out: ID50 (the source's name)
[3] = test system: PC-3 prostate carcinoma line; assay: In vitro cytotoxicity, methylene blue assay / cell count: PC-3; type: cell-based; details: three generations, mean ± standard deviation of five experiments, read-out: ID50 (the source's name)
HepG2 cells = assay: In vitro cytotoxicity, methylene blue assay / cell count: HepG2; type: cell-based; details: Homo sapiens, three generations, mean ± standard deviation of five experiments, read-out: ID50 (the source's name)
CEM cells = assay: In vitro cytotoxicity, methylene blue assay / cell count: CEM; type: cell-based; details: Homo sapiens, CCRF-CEM, three generations, mean ± standard deviation of five experiments, read-out: ID50 (the source's name)
HepG2 tumors = assay: HepG2 xenograft in NCr nude mice; type: in vivo, human; details: 25 mg/kg twice a day on days 0 through 4, NCr nude mice
Method: (§1) FIG. 5 is a graph of the inhibition of human tumor growth by […]. Three to six week old NCr nude mice were inoculated subcutaneously in each flank with 2×10^6 HepG2 or DU-145 cells. Treatment was started when the tumors were in an advanced stage of growth. Drugs were administered twice a day on days 0 through 4 and tumor sizes were measured on the indicated days. […] Each data point represents the means±SD of 10 tumors in graph A and six tumors in graph B.
(§2) Three to six-week-old NCr nude mice (Taconic Immunodeficient Mice and Rats) were inoculated s.c. in each flank with 2×10^6HepG2 or DU-145 cells and tumors were allowed to grow. Treatment was started when the tumors were 100-250mg as determined by caliper measurement and calculated according to the formula:
(§3) Tumor Weight(mg)=length(mm)×width(mm^2)÷2
(§4) Drugs were given at the indicated doses on days 0 through 4 and tumor sizes were measured every several days. The tumor growth curves were generated as described in Bell, et al., Cancer(phila.) 36:2437-2440 (1975), and are illustrated in FIGS. 5(a) and 5(b).

DU-145 tumors = assay: DU-145 xenograft in NCr nude mice; type: in vivo, human; details: 25 mg/kg twice a day on days 0 through 4, NCr nude mice
Method: as §1, §2, §3, §4

NCr nude mice = type: in vivo; details: mouse, in vivo, 25 mg/kg
Method: as §4
Toxicity was evaluated by changes in body weight.

Nc1ccn([C@@H]2O[C@H](CO)[C@@H](O)[C@@H]2O)c(=O)n1 [AraC, Cytosine arabinoside]
IC50 [1]: 152 ± 10 nM
IC50 [2]: 170 ± 35 nM
IC50 [3]: 200 ± 78 nM
IC50 (HepG2 cells): 125 ± 13 nM
IC50 (CEM cells): 30 ± 10 nM
Effect on HepG2 tumors in words (HepG2 tumors): ineffective
Effect on HepG2 tumors in words (HepG2 tumors; listed as arac): inactive
Effect on DU-145 tumors in words (DU-145 tumors): ineffective
Toxicity as indicated by weight loss of the animals (NCr nude mice): equally toxic

Source: patent US6436948B1, “Method for the treatment of psoriasis and genital warts” (priority 1995, dated 2002)
